Assay results published in patent US10722563B2, “Prostate-specific tumor antigens and uses thereof” (SHENZHEN INNOVATION IMMUNOTECHNOLOGY CO., LTD., priority 2012, dated 2020).

What was measured:
Format in all cases: cell-based, human
LNCaP cells = assay: Cytotoxicity of PSGR peptide-specific T cells by LDH assay against LNCaP; details: HLA-A2 positive, PSGR expressing LNCaP; T cells from healthy donors and patients; FIG. 2B
Procedure: The expression of PSGR mRNA in different cell lines was determined by RT-PCR (A). PSGR derived peptide-specific T cells were tested for cytotoxicity against both PC3 and LNCaP by the LDH assay (B). Data from B are plotted as means±SD. Results are representative of three independent experiments. *P<0.05, versus control.
Cells were stained with anti-CD8 and anti-IFN-γ, then analyzed on a FACScalibur machine (A). PSGR-derived peptide-specific T cells were co-incubated with LNCaP cells alone in medium, or with LNCaP cells in the presence of either anti-HLA-I mAb (W6/32), HLA-II mAb or a control mAb (anti-CD19 mAb). After 4 hours of incubation, the cytotoxicity against LNCaP was determined by the LDH assay (B). Data from B are plotted as means±SD. Results are representative of three independent experiments. *P<0.05, versus controls.
PSGR derived peptide-specific T cells were tested for cytotoxicity against both PC3 and LNCaP by a lactate dehydrogenase (LDH) assay (Promega; Madison, Wis., USA). The assay was performed in accordance with the manufacturer's instructions. LDH release was calculated based on the following formula: Cytotoxicity (%)=(Experimental−Effector Spontaneous−Target Spontaneous LDH release)/(Target Maximum−Target Spontaneous LDH release)×100.
Spontaneous release was determined by using the supernatant of the target cells alone or effector cells alone, and the maximum release was determined by using the supernatant of target cells incubated with a lysis solution included in LDH kit. To determine if T cell recognition is HLA-I restricted, anti-HLA-I, anti-HLA-II, or anti-CD19 mAb (all from ATCC, Manassas, Va., USA) were added into wells at the initiation of the culture.

[1] = system: PBMCs of ten HLA-A2+ healthy subjects; assay: In vitro stimulation of peptide-specific T cells in PBMCs of healthy subjects, IFN-γ release by ELISA; details: for healthy subjects in which the peptide induced T cell responses: 10 HLA-A2+ healthy donors, IFN-γ ELISA after 2 weeks of peptide stimulation; for concentrations of IFN-γ in the supernatants: PBMCs stimulated 14 days with peptide 20 μg/mL, response to T2 cells pre-loaded with peptide 5 μg/mL
Procedure: (§1) Ten HLA-A2+ prostate cancer patients and ten HLA-A2+ healthy subjects were enrolled in this study after written informed consent was obtained. All protocols were approved by the Institutional Review Board (IRB) of Baylor College of Medicine before commencing studies. 20 mL of peripheral blood was obtained from each person, and peripheral blood mononuclear cells (PBMCs) were isolated by density gradient centrifugation using Lymphoprep (Nycomed Pharma AS; Oslo, Norway). The freshly isolated PBMCs were cryopreserved for later use in 1 mL freezing medium containing 90% FCS and 10% dimethyl sulfoxide (DMSO) at −140° C. The expression of HLA-A2 molecules on PBMCs obtained from cancer patients and healthy subjects was verified by flow cytometry with FITC-labeled HLA-A2 mAb BB7.2 (BD Pharmingen, San Diego, Calif., USA).
(§2) PBMCs (1×10^5 cells/well) from either healthy subjects or prostate cancer patients were incubated with standard peptide concentrations of 20 μg/mL per peptide in 96-well U-bottom microplates (BD, Franklin Lakes, N.J., USA) in 200 μL of T-cell medium (TCM), consisting of RPMI 1640 (Mediatech, Manassas, Va., USA), 10% human AB serum (Valley Biomedical, Winchester, USA), 50 μM of 2-mercaptoethanol, 100 U/mL of interleukin-2 (IL-2), and 0.1 mM MEM nonessential amino acid solution (Invitrogen, Grand Island, N.Y., USA). Half of the TCM was removed and replaced with fresh TCM containing peptides (20 μg/mL) every 5 days. After 14 days of culture, the cells were harvested and tested for their ability to produce IFN-γ in response to T2 cells (1×10^4 cells/well), which were pre-loaded with either PSGR peptide (5 μg/mL) or a control peptide (an irrelevant HL-A2 binding peptide: NLLTHVESL) as a negative control. After 18 hours of incubation, supernatants were collected, and IFN-γ release was determined by ELISA assay.
(§3) Cytokine release was measured by coating 96-well ELISA plates (Thermo Fisher Scientific; Rochester, N.Y., USA) with 1 μg/mL anti-human IFN-γ (Pierce Biotechnology; Rockford, Ill., USA) overnight at 4° C. The plate was washed six times with PBS containing 0.05% Tween-20 (wash solution) to remove unbound coating antibody, and blocked with 1% BSA/PBS at room temperature for 2 hrs. Afterwards, 50 μL supernatant was added to each well and incubated at room temperature for 1 hr, then 50 μL of 0.5 μg/mL biotinylated anti-human IFN-γ (Pierce Biotechnology; Rockford, Ill., USA) was added and plates were incubated for an additional 1 hr at room temperature. After incubation, plates were washed and incubated for 30 min with Poly-HRP-Streptavidin (Thermo Fisher Scientific; Rochester, N.Y., USA) diluted 1:5000 in PBS/1% BSA. Plates were washed and 100 μL of TMB substrate solution (Sigma-Aldrich Co.; St. Louis, Mo., USA) was added per well. The colorimetric reaction was stopped using 2N H2SO4 and plates were read at 450 nm using an ELISA plate reader.
To determine whether PSGR-reactive T cell precursors are present in healthy subjects, we obtained PBMCs from 10 HLA-A2+ healthy donors and stimulated them in vitro with each of the 21 PSGR-derived peptides containing HLA-A2-binding motif (Table 1). After 2 weeks of peptide stimulation, supernatants from peptide-stimulated T cells were analyzed by ELISA assay to detect IFN-γ release in response to T2 cells pulsed with or without corresponding peptides.

[2] = system: PBMCs of HLA-A2+ prostate cancer patients; assay: In vitro stimulation of peptide-specific T cells in PBMCs of prostate cancer patients, IFN-γ release by ELISA; details: PBMCs stimulated in vitro with peptide; for induction of peptide-specific CTLs from PBMCs of prostate cancer patients: Table 3
Procedure: as §1, §2, §3
Since peptide-specific T cells against PSGR3, PSGR4 and PSGR14 were found in more than 70% of healthy subjects, we reasoned that CTL precursors that recognize these 3 peptides may also be high in PBMCs of prostate cancer patients. To test our hypothesis, we examined whether these three peptide candidates can induce peptide-specific CTLs from the PBMCs of HLA-A2+ prostate cancer patients. PBMCs from prostate cancer patients were collected and stimulated in vitro with PSGR3, PSGR4 or PSGR14 peptides.

| Sequence | recognition and killing of LNCaP by peptide-specific T cells (LNCaP cells) | healthy subjects in which the peptide induced T cell responses [1] | concentrations of IFN-γ in the supernatants ([1]; healthy subject #1) [pg/mL] | concentrations of IFN-γ in the supernatants ([1]; healthy subject #2) [pg/mL] | concentrations of IFN-γ in the supernatants ([1]; healthy subject #3) [pg/mL] | concentrations of IFN-γ in the supernatants ([1]; healthy subject #4) [pg/mL] | concentrations of IFN-γ in the supernatants ([1]; healthy subject #5) [pg/mL] | concentrations of IFN-γ in the supernatants ([1]; healthy subject #6) [pg/mL] | concentrations of IFN-γ in the supernatants ([1]; healthy subject #7) [pg/mL] | concentrations of IFN-γ in the supernatants ([1]; healthy subject #8) [pg/mL] | concentrations of IFN-γ in the supernatants ([1]; healthy subject #9) [pg/mL] | concentrations of IFN-γ in the supernatants ([1]; healthy subject #10) [pg/mL] | induction of peptide-specific CTLs from PBMCs of prostate cancer patients [2] | concentrations of IFN-γ in the supernatants ([2]; prostate cancer patient #2) [pg/mL] | concentrations of IFN-γ in the supernatants ([2]; prostate cancer patient #3) [pg/mL] | concentrations of IFN-γ in the supernatants ([2]; prostate cancer patient #12) [pg/mL] | concentrations of IFN-γ in the supernatants ([2]; prostate cancer patient #13) [pg/mL] | concentrations of IFN-γ in the supernatants ([2]; prostate cancer patient #14) [pg/mL] | concentrations of IFN-γ in the supernatants ([2]; prostate cancer patient #15) [pg/mL] | concentrations of IFN-γ in the supernatants ([2]; prostate cancer patient #16) [pg/mL] | other results |
| --- | --- | --- | --- | --- | --- | --- | --- | --- | --- | --- | --- | --- | --- | --- | --- | --- | --- | --- | --- | --- | --- |
| ILANIYLLV (PSGR3) | could recognize and kill | 7 out of 10 | 127 | 398 | 393 | 768 | 227 | 183 | 645 | 0 | 394 | 0 | indeed induced peptide-specific CTLs | 525 | 503 | 326 | 217 | 0 | 282 | 35 | concentrations of IFN-γ in the supernatants ([2]; prostate cancer patient #17): 156 pg/mL; concentrations of IFN-γ in the supernatants ([2]; prostate cancer patient #22): 103 pg/mL; concentrations of IFN-γ in the supernatants ([2]; prostate cancer patient #25): 22 pg/mL |
| VILANIYLLV (PSGR14) | could recognize and kill | 7 out of 10 | 471 | 0 | 115 | 0 | 124 | 296 | 843 | 0 | 346 | 854 | indeed induced peptide-specific CTLs | 344 | 116 | 272 | 23 | 0 | 24 | 0 | concentrations of IFN-γ in the supernatants ([2]; prostate cancer patient #17): 100 pg/mL; concentrations of IFN-γ in the supernatants ([2]; prostate cancer patient #22): 8 pg/mL; concentrations of IFN-γ in the supernatants ([2]; prostate cancer patient #25): 11 pg/mL |
| WLAFPLCSL (PSGR4) | could recognize and kill | 7 out of 10 | 302 | 152 | 457 | 0 | 407 | 226 | 847 | 0 | 0 | 459 | indeed induced peptide-specific CTLs | 451 | 351 | 0 | 301 | 309 | 70 | 6.7 | concentrations of IFN-γ in the supernatants ([2]; prostate cancer patient #17): 102 pg/mL; concentrations of IFN-γ in the supernatants ([2]; prostate cancer patient #22): 56 pg/mL; concentrations of IFN-γ in the supernatants ([2]; prostate cancer patient #25): 27 pg/mL |
